# Test results from US20090227619A1, “Harmine derivatives, intermediates used in their preparations, preparation processes and use therefo” (priority 2003, published 2009).
# pIC50: −log10 of the molar value. Read-outs that look alike come from different tables or passages of the source.
# Columns and labels:
# HepG2 = experiment: In vitro cytotoxicity, IC50 by MTT method, HepG2; assay type: cell-based, human; details: Homo sapiens; HepG2 cell strain; read-out: IC50 HepG2
# How it was run: (§1)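 MTT viability, 48 h exposure: cells 10^5/ml in RPMI1640 + 10% FBS, 37 °C/5% CO2; MTT 4 h, DMSO solubilisation, A490.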
# in vivo = details: both, Kunming, mouse, ip
# Experimental: (§2) Five grades of dosages for each sample according to the results of the preliminary test, each dosage being 0.8 larger than the previous one
# (§3) During the experiment, each sample was added a small amount of Tween-80 to facilitate dissolution after the sample was weighed, and then 0.5% CMC-Na solution was gradually added to achieve the desired concentration. The experimental volume was 0.5 ml/20 g mouse.
# (§4) Single injection via intraperitoneal (i.p.) to different groups mice.
# (§5) Kunming mice were divided into different groups randomly according to their sex. The medicament was intraperitoneally administered to each group of mice according to the dosage setting. After the administration of the medicaments, mice were observed continuously for the first 2 h for any gross behavioral changes and deaths. Dead animals were dissected and examined for any possible organ damage. […] Conditions of animals died within two week were recorded. After two weeks, all survived animals were sacrificed and checked macroscopically for possible damage to the heart, liver, kidneys and so on. Viscera that had substantive pathological changes were pathologically examined.
# Lewis lung cancer = details: Lewis lung cancer; for Body weight of the animals, end, First time / Body weight of the animals, end, Second time: ip × 10qd; for Inhibition rate (%) Lewis cancer: comparison table 43, in vivo;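 on all read-outs here: mice implanted subcutaneously in the axilla with Lewis lung tumor cells, treated starting the following day, killed roughly three weeks after implantation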
# Bel-7402 = experiment: In vitro cytotoxicity, IC50 by MTT method, Bel-7402; assay type: cell-based; details: Homo sapiens, Bel-7402; Bel7402 cell strain; read-out: IC50 Bel7402
# How it was run: as §1
# Kunming mice = details: for Death rate: single i.p.
# Experimental: as §2, §3, §4, §5
# NIH3T3 = experiment: In vitro cytotoxicity, IC50 by MTT method, NIH3T3; assay type: cell-based; details: Mus musculus; NIH3T3 cell strain; read-out: IC50 NIH3T3
# How it was run: as §1
# Lovo = experiment: In vitro cytotoxicity, IC50 by MTT method, Lovo; assay type: cell-based; details: Homo sapiens; Lovo cell strain; read-out: IC50 Lovo
# How it was run: as §1
# BGC-823 = experiment: In vitro cytotoxicity, IC50 by MTT method, BGC-823; assay type: cell-based; details: Homo sapiens, BGC-823; BGC823 cell strain; read-out: IC50 BGC823
# How it was run: as §1
# S180 sarcoma = details: S180 sarcoma; for Body weight of the animals, beginning, First time / Body weight of the animals, end, First time / Inhibition rate, First time / Weight of the tumor X ± SD, First time / Body weight of the animals, beginning, Second time / Body weight of the animals, end, Second time / Inhibition rate, Second time: ip × 10qd; for Inhibition rate (%) S180 sarcomata: comparison table 43, in vivo
# Text: There was one group of 8 to 10 mice C57BL/6 and Kunming mice for the anti-tumor tests and two groups of mice for negative control.
# (3) Sources of tumors: Lewis lung cancer cells and S180 sarcoma in mice, which were sub-cultured and maintained by Pharmacological Center of Shanghai Pharmaceutical Industrial Research Institute.
# All samples were weighed and added a small amount of Tween-80 to facilitate dissolution during the experiment, and then 0.5% CMC-Na solution was gradually added to achieve the desired concentration. The volume for experiment was 0.5 ml/20 g mouse.
# The medicaments were intraperitoneally administered once a day continuously for 10 days.
# For the negative control group, a vehicle of the same volume was intraperitoneally administered once a day continuously for 10 days. For the positive control group, CTX was administered in the dosage of 30 mg/kg once a day continuously for 7 days.
# In vivo anti-tumor subcutaneous vaccination in the axilla was employed. Wildly grown tumor source was taken under sterile conditions to form a cell suspension of about 1×10^7 ml by homogenization method. For a corresponding mouse host, the suspension was injected in the axilla in an amount of 0.2 ml/mouse. The next day, the medicaments were administered according to the design of the tests. About three weeks later, all the groups of animals were executed. The tumors were taken from the animals and weighed. The inhibition rate of tumors was calculated according to the following formula:
# T: average tumor weight of treated group; C: average tumor weight of negative control group.
# Hela = experiment: In vitro cytotoxicity, IC50 by MTT method, Hela; assay type: cell-based; details: Homo sapiens; Hela cell strain; read-out: IC50 Hela
# How it was run: as §1
# PLA-801 = experiment: In vitro cytotoxicity, IC50 by MTT method, PLA-801; assay type: cell-based; details: PLA-801 cell strain; read-out: IC50 PLA-801
# How it was run: as §1
# CT-DNA = experiment: DNA thermal denaturation, determination of ΔTm; assay type: binding; details: 20 uM compound, Tm of CT-DNA alone 61° C.
# How it was run: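 CT-DNA at 15 ug/ml in PE buffer (1 mM Na2HPO4, 0.1 mM EDTA, pH 7.6), heated at 0.5° C./min from 25 to 95° C. Tm taken as hyperchromic transition mid-point; ΔTm = Tm of drug-DNA complex minus Tm of DNA alone, mean of three runs.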
# [1] = 50% male 50% female mice, 240 mg/kg
# [2] = 50% male 50% female mice, 300 mg/kg
# [3] = CT-DNA 15 ug/ml, PE buffer pH 7.6
# 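Wherever Death rate is given: acute toxicity in Kunming mice grouped by sex, one intraperitoneal dose at five graded levels in Tween-80 plus 0.5% CMC-Na, deaths monitored over two weeks.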
# 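Wherever LD50 is given: acute toxicity in Kunming mice grouped by sex, one intraperitoneal dose at five graded levels in Tween-80 plus 0.5% CMC-Na, deaths monitored over two weeks.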
# 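Wherever MTD is given: acute toxicity in Kunming mice grouped by sex, one intraperitoneal dose at five graded levels in Tween-80 plus 0.5% CMC-Na, deaths monitored over two weeks.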
# 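Wherever Sex is given: acute toxicity in Kunming mice grouped by sex, one intraperitoneal dose at five graded levels in Tween-80 plus 0.5% CMC-Na, deaths monitored over two weeks.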
smiles,measurement,setting,value
"c1ccc(Cn2c3ccccc3c3ccncc32)cc1 [Compound 84, 9-Benzyl-β-carboline]",pIC50,HepG2,3.96
same,MTD at 2 weeks,in vivo,240 mg/kg
same,"Body weight of the animals, end, First time",Lewis lung cancer; Dosage 50 (mg/ml),24.1 g
same,"Body weight of the animals, end, Second time",Lewis lung cancer; Dosage 50 (mg/ml),25.2 g
same,"Body weight of the animals, beginning, First time","Lewis lung cancer; Dosage 50, ip × 10qd",19.0 g
same,"Inhibition rate, First time","Lewis lung cancer; Dosage 50, ip × 10qd",27.09%
same,"Weight of the tumor X ± SD, First time","Lewis lung cancer; Dosage 50, ip × 10qd",1.83 ± 0.11 g
same,"Body weight of the animals, beginning, Second time","Lewis lung cancer; Dosage 50, ip × 10qd",19.7 g
same,"Inhibition rate, Second time","Lewis lung cancer; Dosage 50, ip × 10qd",30.93%
same,"Weight of the tumor X ± SD, Second time","Lewis lung cancer; Dosage 50, ip × 10qd",1.63 ± 0.16 g
same,"Body weight of the animals, end, First time",Lewis lung cancer; Dosage 100 (mg/ml),24.2 g
same,"Body weight of the animals, end, Second time",Lewis lung cancer; Dosage 100 (mg/ml),24.7 g
same,"Body weight of the animals, beginning, First time","Lewis lung cancer; Dosage 100, ip × 10qd",18.5 g
same,"Inhibition rate, First time","Lewis lung cancer; Dosage 100, ip × 10qd",35.06%
same,"Weight of the tumor X ± SD, First time","Lewis lung cancer; Dosage 100, ip × 10qd",1.63 ± 0.11 g
same,"Body weight of the animals, beginning, Second time","Lewis lung cancer; Dosage 100, ip × 10qd",19.4 g
same,"Inhibition rate, Second time","Lewis lung cancer; Dosage 100, ip × 10qd",37.29%
same,"Weight of the tumor X ± SD, Second time","Lewis lung cancer; Dosage 100, ip × 10qd",1.48 ± 0.15 g
same,Inhibition rate (%) Lewis cancer,Lewis lung cancer,37.29%
same,pIC50,Bel-7402,4.10
same,Death rate,Kunming mice; [1],0
same,Death rate,Kunming mice; [2],30
same,Sex,"Kunming mice; both, Kunming, mouse, in vivo, ip, 2 weeks",240
same,Death rate,"Kunming mice; female mice, 240 mg/kg",0
same,Death rate,"Kunming mice; female mice, 300 mg/kg",40
same,Death rate,"Kunming mice; male mice, 240 mg/kg",0
same,Death rate,"Kunming mice; male mice, 300 mg/kg",20
same,pIC50,NIH3T3,3.96
same,pIC50,Lovo,3.92
same,pIC50,BGC-823,4.15
same,"Body weight of the animals, beginning, First time",S180 sarcoma; Dosage 50 (mg/ml),19.6 g
same,"Body weight of the animals, end, First time",S180 sarcoma; Dosage 50 (mg/ml),26.8 g
same,"Inhibition rate, First time",S180 sarcoma; Dosage 50 (mg/ml),29.47%
same,"Weight of the tumor X ± SD, First time",S180 sarcoma; Dosage 50 (mg/ml),2.01 ± 0.24 g
same,"Body weight of the animals, beginning, Second time",S180 sarcoma; Dosage 50 (mg/ml),20.4 g
same,"Body weight of the animals, end, Second time",S180 sarcoma; Dosage 50 (mg/ml),25.4 g
same,"Inhibition rate, Second time",S180 sarcoma; Dosage 50 (mg/ml),31.23%
same,"Weight of the tumor X ± SD, Second time","S180 sarcoma; Dosage 50, ip × 10qd",1.96 ± 0.16 g
same,"Body weight of the animals, beginning, First time",S180 sarcoma; Dosage 100 (mg/ml),19.7 g
same,"Body weight of the animals, end, First time",S180 sarcoma; Dosage 100 (mg/ml),26.4 g
same,"Inhibition rate, First time",S180 sarcoma; Dosage 100 (mg/ml),37.19%
same,"Weight of the tumor X ± SD, First time",S180 sarcoma; Dosage 100 (mg/ml),1.79 ± 0.27 g
same,"Body weight of the animals, beginning, Second time",S180 sarcoma; Dosage 100 (mg/ml),20.2 g
same,"Body weight of the animals, end, Second time",S180 sarcoma; Dosage 100 (mg/ml),25.0 g
same,"Inhibition rate, Second time",S180 sarcoma; Dosage 100 (mg/ml),37.19%
same,"Weight of the tumor X ± SD, Second time","S180 sarcoma; Dosage 100, ip × 10qd",1.79 ± 0.16 g
same,Inhibition rate (%) S180 sarcomata,S180 sarcoma,37.19%
same,pIC50,Hela,4.30
same,pIC50,PLA-801,3.92
same,ΔTm,CT-DNA; [3],1.5 °C
same,ΔTm,CT-DNA; CT-DNA thermal denaturation,1.5 °C
"CCOC(=O)c1cc2c3ccccc3n(Cc3ccccc3)c2cn1 [Compound 33, ethyl 9-benzyl-β-carboline-3-carboxylate]",pIC50,HepG2,4.10
same,LD50 at 2 weeks,in vivo,240 mg/kg
same,"Body weight of the animals, end, First time",Lewis lung cancer; Dosage 50 (mg/ml),25.4 g
same,"Body weight of the animals, end, Second time",Lewis lung cancer; Dosage 50 (mg/ml),24.9 g
same,"Body weight of the animals, beginning, First time","Lewis lung cancer; Dosage 50, ip × 10qd",20.3 g
same,"Inhibition rate, First time","Lewis lung cancer; Dosage 50, ip × 10qd",34.16%
same,"Weight of the tumor X ± SD, First time","Lewis lung cancer; Dosage 50, ip × 10qd",1.60 ± 0.09 g
same,"Body weight of the animals, beginning, Second time","Lewis lung cancer; Dosage 50, ip × 10qd",18.9 g
same,"Inhibition rate, Second time","Lewis lung cancer; Dosage 50, ip × 10qd",31.06%
same,"Weight of the tumor X ± SD, Second time","Lewis lung cancer; Dosage 50, ip × 10qd",2.02 ± 0.18 g
same,"Body weight of the animals, end, First time",Lewis lung cancer; Dosage 100 (mg/ml),24.7 g
same,"Body weight of the animals, end, Second time",Lewis lung cancer; Dosage 100 (mg/ml),24.5 g
same,"Body weight of the animals, beginning, First time","Lewis lung cancer; Dosage 100, ip × 10qd",19.9 g
same,"Inhibition rate, First time","Lewis lung cancer; Dosage 100, ip × 10qd",42.80%
same,"Weight of the tumor X ± SD, First time","Lewis lung cancer; Dosage 100, ip × 10qd",1.39 ± 0.15 g
same,"Body weight of the animals, beginning, Second time","Lewis lung cancer; Dosage 100, ip × 10qd",19.0 g
same,"Inhibition rate, Second time","Lewis lung cancer; Dosage 100, ip × 10qd",43.34%
same,"Weight of the tumor X ± SD, Second time","Lewis lung cancer; Dosage 100, ip × 10qd",1.66 ± 0.12 g
same,Inhibition rate (%) Lewis cancer,Lewis lung cancer,43.3%
same,pIC50,Bel-7402,3.47
same,Death rate,Kunming mice; [1],50
same,Death rate,Kunming mice; [2],90
same,Death rate,"Kunming mice; female mice, 240 mg/kg",60
same,Death rate,"Kunming mice; female mice, 300 mg/kg",100
same,Death rate,"Kunming mice; male mice, 240 mg/kg",40
same,Death rate,"Kunming mice; male mice, 300 mg/kg",80
same,LD50,"Kunming mice; mouse, in vivo, ip",211 to 274 mg/kg
same,pIC50,NIH3T3,4.30
same,pIC50,Lovo,3.92
same,pIC50,BGC-823,3.82
same,"Body weight of the animals, beginning, First time",S180 sarcoma; Dosage 50 (mg/ml),19.4 g
same,"Body weight of the animals, end, First time",S180 sarcoma; Dosage 50 (mg/ml),24.4 g
same,"Inhibition rate, First time",S180 sarcoma; Dosage 50 (mg/ml),33.33%
same,"Weight of the tumor X ± SD, First time",S180 sarcoma; Dosage 50 (mg/ml),1.78 ± 0.17 g
same,"Body weight of the animals, beginning, Second time",S180 sarcoma; Dosage 50 (mg/ml),18.7 g
same,"Body weight of the animals, end, Second time",S180 sarcoma; Dosage 50 (mg/ml),25.6 g
same,"Inhibition rate, Second time",S180 sarcoma; Dosage 50 (mg/ml),32.22%
same,"Weight of the tumor X ± SD, Second time","S180 sarcoma; Dosage 50, ip × 10qd",1.83 ± 0.19 g
same,"Body weight of the animals, beginning, First time",S180 sarcoma; Dosage 100 (mg/ml),19.4 g
same,"Body weight of the animals, end, First time",S180 sarcoma; Dosage 100 (mg/ml),24.6 g
same,"Inhibition rate, First time",S180 sarcoma; Dosage 100 (mg/ml),42.70%
same,"Weight of the tumor X ± SD, First time",S180 sarcoma; Dosage 100 (mg/ml),1.53 ± 0.15 g
same,"Body weight of the animals, beginning, Second time",S180 sarcoma; Dosage 100 (mg/ml),18.6 g
same,"Body weight of the animals, end, Second time",S180 sarcoma; Dosage 100 (mg/ml),25.1 g
same,"Inhibition rate, Second time",S180 sarcoma; Dosage 100 (mg/ml),40.00%
same,"Weight of the tumor X ± SD, Second time","S180 sarcoma; Dosage 100, ip × 10qd",1.62 ± 0.30 g
same,Inhibition rate (%) S180 sarcomata,S180 sarcoma,42.11%
same,pIC50,Hela,5.00
same,pIC50,PLA-801,3.77
same,ΔTm,CT-DNA; [3],−1.2 °C
same,ΔTm,CT-DNA; CT-DNA thermal denaturation,−1.2 °C
